Tests used:
Homo sapiens = assay: Oral bioavailability in human at 3 to 15 mg/day; format: ADME, organism-based; conditions: in vivo
[1] = Oral bioavailability in cancer patient at 75 mg, qd administered 5 days for every 2 weeks; format: ADME, organism-based; conditions: human, in vivo
[2] = Oral bioavailability in human; format: ADME, organism-based; conditions: in vivo
[3] = Oral bioavailability in dog at 1 mg/kg; format: ADME, organism-based, Canis lupus familiaris; conditions: in vivo
[4] = Oral bioavailability in rat at 5 mg/kg; format: ADME, organism-based; conditions: in vivo
[5] = Apparent permeability across apical to basolateral side of human Caco2 cells at 5 uM after 120 mins by LC/MS/MS analysis; format: ADME, cell-based; conditions: Caco-2
[6] = Oral bioavailability in mouse administered as bid; format: ADME, organism-based; conditions: in vivo
[7] = Half life in human at 25 mg, po administered through fat rich diet; format: ADME, organism-based; conditions: in vivo

Work on IVERMECTIN yielded an F (Homo sapiens) of 60%.
With `CO[C@H]1C[C@@H]2CC[C@@H](C)[C@@](O)(O2)C(=O)C(=O)N2CCCC[C@H]2C(=O)O[C@H]([C@H](C)C[C@@H]2CC[C@@H](OC(=O)C(C)(CO)CO)[C@H](OC)C2)CC(=O)[C@H](C)/C=C(\C)[C@@H](O)[C@@H](OC)C(=O)[C@H](C)C[C@H](C)/C=C/C=C/C=C/1C` [TEMSIROLIMUS] the bioavailability [1] was 1.5%.
Work on `CO[C@H]1/C=C/O[C@@]2(C)Oc3c(C)c(O)c4c(O)c(c(/C=N/N5CCN(C)CC5)c(O)c4c3C2=O)NC(=O)/C(C)=C\C=C\[C@H](C)[C@H](O)[C@@H](C)[C@@H](O)[C@@H](C)[C@H](OC(C)=O)[C@@H]1C` [RIFAMPIN] yielded a bioavailability [2] of 50%.
In the case of `CO[C@H]1/C=C/O[C@@]2(C)Oc3c(C)c(O)c4c(O)c(c(/C=N/N5CCN(C6CCCC6)CC5)c(O)c4c3C2=O)NC(=O)/C(C)=C\C=C\[C@H](C)[C@H](O)[C@@H](C)[C@@H](O)[C@@H](C)[C@H](OC(C)=O)[C@@H]1C` [RIFAPENTINE], the bioavailability [2] is reported as 70%.
For `CO[C@H]1C[C@@H]2CC[C@@H](C)[C@@](O)(O2)C(=O)C(=O)N2CCCC[C@H]2C(=O)O[C@H]([C@H](C)C[C@@H]2CC[C@@H](OCCO)[C@H](OC)C2)CC(=O)[C@H](C)/C=C(\C)[C@@H](O)[C@@H](OC)C(=O)[C@H](C)C[C@H](C)/C=C/C=C/C=C/1C` [EVEROLIMUS], the bioavailability [2] was 20%.
Compound `C=C[C@@H]1C[C@]1(NC(=O)[C@@H]1C[C@@H]2CN1C(=O)[C@H](C(C)(C)C)NC(=O)O[C@@H]1C[C@H]1CCCCCc1nc3ccc(OC)cc3nc1O2)C(=O)NS(=O)(=O)C1CC1` [GRAZOPREVIR ANHYDROUS] has a bioavailability [3] of 13% and a bioavailability [4] of 1%.
In the case of `CN1C/C=C/CCOc2cccc(c2)-c2ccnc(n2)Nc2cccc(c2)C1` [ZOTIRACICLIB], the Papp A→B at 2 h, 5 µM [5] is reported as 28 ×10⁻⁶ cm/s.
`COc1cc2ncnc3c2cc1OCCCCCN(C)Cc1ccc(Br)cc1N3` [JNJ-26483327] gave a bioavailability [6] of 80%.
Work on `CO[C@H]1/C=C/O[C@@]2(C)Oc3c(C)c(O)c4c(=O)c(c5oc6cc(N7CCN(CC(C)C)CC7)cc(O)c6nc-5c4c3C2=O)NC(=O)/C(C)=C\C=C\[C@H](C)[C@H](O)[C@@H](C)[C@@H](O)[C@@H](C)[C@H](OC(C)=O)[C@@H]1C` [RIFALAZIL] yielded a half-life [7] of 100 h.
`C=CC[C@@H]1/C=C(\C)C[C@H](C)C[C@H](OC)[C@H]2O[C@@](O)(C(=O)C(=O)N3CCCC[C@H]3C(=O)O[C@H](/C(C)=C/[C@@H]3CC[C@@H](O)[C@H](OC)C3)[C@H](C)[C@@H](O)CC1=O)[C@H](C)C[C@@H]2OC` [TACROLIMUS ANHYDROUS] gave a bioavailability [2] of 15%.

From ChEMBL document CHEMBL3108664, “Macrocyclic drugs and clinical candidates: what can medicinal chemists learn from their properties?” (J Med Chem, 2014)
